Like-named read-outs stand apart in the source and are kept apart here. Starred links: 1 amine or outer side, 2 acyl side, 3 side chain; linkers in the order of their positions; H or OH if unused. Positions of bridges follow the written chain, without caps; N, C: chain ends. Non-standard residues stand in square brackets, D forms with d. Residues, ends and D or L forms follow the SMILES beside them. ξ: configuration not given here. Phe(4-CONH2) = NC(=O)c1ccc(C[C@H](N)C(=O)O)cc1; Phe(3-Br) = N[C@@H](Cc1cccc(Br)c1)C(=O)O; Phe(3-Me) = Cc1cccc(C[C@H](N)C(=O)O)c1; γGlu = O=C(O)[C@H](CCC(=O)[*:2])N[*:1]; 2Nal = N[C@@H](Cc1ccc2ccccc2c1)C(=O)O; βAsp = O=C(O)[C@H](CC(=O)[*:2])N[*:1]; NMeL = CN[C@@H](CC(C)C)C(=O)O; Ahp(2) = CCCCC[C@H](N)C(=O)O; NMeNle = CCCC[C@H](NC)C(=O)O; Tle = CC(C)(C)[C@H](N)C(=O)O; NHexGly = CCCCCCNCC(=O)O; Nle = CCCC[C@H](N)C(=O)O; Orn = NCCC[C@H](N)C(=O)O; Aun = NCCCCCCCCCCC(=O)O; ξD = NC(CC(=O)O)C(=O)O; AEEA = NCCOCCOCC(=O)O

This assay has as its target T1, mouse VISTA (mVISTA) (Mus musculus, UniProt Q9D659).
T1 construct: expressed in transfected cells; host or cells: Human embryonic kidney 293T cells
T1 sequence (Q9D659 33-308): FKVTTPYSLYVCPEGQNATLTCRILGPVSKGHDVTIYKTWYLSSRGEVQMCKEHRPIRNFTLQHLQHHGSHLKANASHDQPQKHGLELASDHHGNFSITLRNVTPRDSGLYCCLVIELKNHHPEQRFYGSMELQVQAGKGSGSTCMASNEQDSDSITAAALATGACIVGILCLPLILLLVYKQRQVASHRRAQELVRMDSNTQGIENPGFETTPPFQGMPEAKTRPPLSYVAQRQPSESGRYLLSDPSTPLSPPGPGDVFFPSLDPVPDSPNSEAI
Put plainly: Cell-Based Binding High-Content Assay For mVISTA (HC CBA mVISTA). Summed up:
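293T cells expressing mouse VISTA, with compounds added either after seeding ("no wash") or before seeding and then washed out after 1 h. Biotinylated peptide 2 nM for 30 min at room temperature, then detection with Alexa 647–streptavidin. After fixation with Hoechst stain, plates were high-content imaged; IC50 from four-parameter logistic fit.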

The mark [1] stands for this setting: 293T cells expressing mouse VISTA, competition with biotinylated peptide (2 nM), read-out: HC CBA mVISTA IC50.
The mark [2] stands for this setting: cell-based binding high-content assay, mVISTA, read-out: HC CBA miPrISTA IC50.

Regarding `CCCCCCN1CC(=O)N[C@@H](Cc2ccc(O)cc2)C(=O)N[C@@H](CCCC)C(=O)NCC(=O)N[C@@H](CCCNC(=N)N)C(=O)N[C@@H](CC(C)C)C(=O)N[C@@H](CCCCC)C(=O)N2CCC[C@H]2C(=O)N[C@@H](C(C)C)C(=O)N[C@@H](Cc2ccc(O)cc2)C(=O)N[C@H](C(=O)NCC(=O)O)CSCC(=O)N[C@@H](Cc2ccccc2)C(=O)N[C@@H](Cc2ccc(O)cc2)C(=O)N[C@@H](CC(=O)O)C1=O` [Example 1070] ({CH2CO}-FYD[NHexGly]Y[Nle]GRL[Ahp(2)]PVYCG-OH; thioether N-14), the IC50 under setting [1] came out at 18.1 nM.

As for `CCCCCCN1CC(=O)N[C@@H](Cc2ccc(O)cc2)C(=O)N[C@@H](CC(C)C)C(=O)NCC(=O)N[C@@H](CCCNC(=N)N)C(=O)N[C@@H](Cc2ccc(O)cc2)C(=O)N[C@@H](CCCCC)C(=O)N2CCC[C@H]2C(=O)N[C@@H](C(C)C)C(=O)N[C@@H](C(C)C)C(=O)N[C@H](C(=O)NCC(=O)O)CSCC(=O)N[C@@H](Cc2ccccc2)C(=O)N[C@@H](Cc2ccc(O)cc2)C(=O)N[C@@H](CC(=O)O)C1=O` [Example 1097] ({CH2CO}-FYD[NHexGly]YLGRY[Ahp(2)]PVVCG-OH; thioether N-14), the IC50 under setting [1] was determined as 18 nM.

As to `CCCCCCN1CC(=O)N[C@@H](Cc2ccc(O)cc2)C(=O)N[C@@H](CC(C)C)C(=O)N[C@@H](CC(N)=O)C(=O)N[C@@H](CCCN)C(=O)N(C)[C@@H](CCCC)C(=O)N[C@@H](CCCCC)C(=O)N2CCC[C@H]2C(=O)N[C@@H](C(C)(C)C)C(=O)N[C@@H](CC(=O)O)C(=O)N[C@H](C(=O)N[C@@H](CC(=O)NCCOCCOCC(=O)N[C@@H](CC(=O)O)C(=O)NCCOCCOCC(=O)NCCCCCCCCCCC(=O)O)C(=O)O)CSCC(=O)N[C@@H](Cc2ccc(C(N)=O)cc2)C(=O)N[C@@H](Cc2ccc(O)cc2)C(=O)N[C@@H](CC(=O)O)C1=O` [compound 2092] ({CH2CO}-[Phe(4-CONH2)]YD[NHexGly]YLN[Orn][NMeNle][Ahp(2)]P[Tle]DC[βAsp][AEEA]D[AEEA][Aun]-OH; thioether N-14), the IC50 under setting [2] was 15.8 nM.

For the compound `CCCCCCN1CC(=O)N[C@@H](Cc2ccc(O)cc2)C(=O)N[C@@H](CCCC)C(=O)N[C@@H](CC(=O)O)C(=O)N[C@@H](CCCN)C(=O)N[C@@H](CC(C)C)C(=O)N[C@@H](CCCCC)C(=O)N2CCC[C@H]2C(=O)N[C@@H](C(C)C)C(=O)N[C@@H](CC(=O)O)C(=O)N[C@H](C(=O)N[C@@H](CO)C(N)=O)CSCC(=O)N[C@@H](Cc2ccc3ccccc3c2)C(=O)N[C@@H](Cc2ccc(O)cc2)C(=O)N[C@@H](CC(=O)O)C1=O` [Ex 1319] ({CH2CO}-[2Nal]YD[NHexGly]Y[Nle]D[Orn]L[Ahp(2)]PVDCS-NH2; thioether N-14), the IC50 (cell-based binding high-content assay, mVISTA, the 16th table, read-out: HC CBA mVISTA IC50) was 13.7 nM.

As to `CCCCCCN1CC(=O)N[C@@H](Cc2ccc(O)cc2)C(=O)N[C@@H](CC(C)C)C(=O)N[C@@H](CC(N)=O)C(=O)N[C@@H](CCCNC(=N)N)C(=O)N(C)[C@@H](CC(C)C)C(=O)N[C@@H](CCCCC)C(=O)N2CCC[C@H]2C(=O)N[C@@H](C(C)(C)C)C(=O)N[C@@H](CO)C(=O)N[C@H](C(=O)NCCOCCOCC(=O)N[C@@H](CCC(=O)NCCOCCOCC(=O)NCCCCCCCCCCC(=O)O)C(=O)O)CSCC(=O)N[C@@H](Cc2ccccc2)C(=O)N[C@@H](Cc2c[nH]c3ccccc23)C(=O)N[C@@H](CC(=O)O)C1=O` [compound 2263] ({CH2CO}-FWD[NHexGly]YLNR[NMeL][Ahp(2)]P[Tle]SC[AEEA][γGlu][AEEA][Aun]-OH; thioether N-14), for the setting “read-out: HC CBA mVISTA IC50”, the IC50 is 25.1 nM.

On to `CCCCCCN1CC(=O)N[C@@H](Cc2ccc(O)cc2)C(=O)N[C@@H](CCCC)C(=O)N[C@@H](CC(=O)O)C(=O)N[C@@H](CCCNC(=N)N)C(=O)N(C)[C@@H](CCCC)C(=O)N[C@@H](CCCCC)C(=O)N2CCC[C@H]2C(=O)N[C@@H](C(C)C)C(=O)N[C@@H](CC(=O)O)C(=O)N[C@H](C(=O)NC(CC(=O)O)C(N)=O)CSCC(=O)N[C@@H](Cc2ccccc2)C(=O)N[C@@H](Cc2cccc(C)c2)C(=O)N[C@@H](CC(=O)O)C1=O` (stereo partly drawn) [compound 1342] ({CH2CO}-F[Phe(3-Me)]D[NHexGly]Y[Nle]DR[NMeNle][Ahp(2)]PVDC[ξD]-NH2; thioether N-14), for which, for the setting “read-out: HC CBA mVISTA IC50”, the IC50 is 12.5 nM.

In the case of `CCCCCCN1CC(=O)N[C@@H](Cc2ccc(O)cc2)C(=O)N[C@@H](CC(C)C)C(=O)N[C@@H](CC(N)=O)C(=O)N[C@@H](CCCNC(=N)N)C(=O)N(C)[C@@H](CCCC)C(=O)N[C@@H](CCCCC)C(=O)N2CCC[C@H]2C(=O)N[C@@H](C(C)(C)C)C(=O)N[C@@H](CO)C(=O)N[C@H](C(=O)NCC(N)=O)CSCC(=O)N[C@@H](Cc2cccc(Br)c2)C(=O)N[C@@H](Cc2ccc(O)cc2)C(=O)N[C@@H](CC(=O)O)C1=O` [compound 1225] ({CH2CO}-[Phe(3-Br)]YD[NHexGly]YLNR[NMeNle][Ahp(2)]P[Tle]SCG-NH2; thioether N-14), the half-maximal inhibitory concentration (IC50) (read-out: HC CBA mVISTA IC50) turned out to be 31.2 nM.

As to `CCCCCCN1CC(=O)N[C@@H](Cc2ccc(O)cc2)C(=O)N[C@@H](CC(C)C)C(=O)N[C@@H](CC(N)=O)C(=O)N[C@@H](CCCNC(=N)N)C(=O)N[C@@H](CC(C)C)C(=O)N[C@@H](CCCCC)C(=O)N2CCC[C@H]2C(=O)N[C@@H](C(C)C)C(=O)N[C@@H](CO)C(=O)N[C@H](C(=O)N[C@@H](CC(=O)O)C(=O)NCCOCCOCC(=O)N[C@@H](CC(=O)O)C(=O)NCCOCCOCC(=O)NCCCCCCCCCCC(=O)O)CSCC(=O)N[C@@H](Cc2ccccc2)C(=O)N[C@@H](Cc2ccc(O)cc2)C(=O)N[C@@H](CC(=O)O)C1=O` [compound 2004] ({CH2CO}-FYD[NHexGly]YLNRL[Ahp(2)]PVSCD[AEEA]D[AEEA][Aun]-OH; thioether N-14), the IC50 (cell-based binding high-content assay, mVISTA, read-out: HC CBA miPr ISTA IC50) came out at 49.3 nM.

Consider `CCCCCCN1CC(=O)N[C@@H](Cc2ccc(O)cc2)C(=O)N[C@@H](CC(C)C)C(=O)N[C@@H](CC(N)=O)C(=O)N[C@@H](CCCNC(=N)N)C(=O)N(C)[C@@H](CCCC)C(=O)N[C@@H](CCCCC)C(=O)N2CCC[C@H]2C(=O)N[C@@H](C(C)C)C(=O)N[C@@H](CO)C(=O)N[C@H](C(=O)NCC(N)=O)CSCC(=O)N[C@@H](Cc2cccc(Br)c2)C(=O)N[C@@H](Cc2ccc(O)cc2)C(=O)N[C@@H](CC(=O)O)C1=O` [compound 1224] ({CH2CO}-[Phe(3-Br)]YD[NHexGly]YLNR[NMeNle][Ahp(2)]PVSCG-NH2; thioether N-14), for which, where the note is “read-out: HC CBA mVISTA IC50”, the IC50 was found to be 22.6 nM.

`CCCCCCN1CC(=O)N[C@@H](Cc2ccc(O)cc2)C(=O)N[C@@H](CCCC)C(=O)N[C@@H](CC(N)=O)C(=O)N[C@@H](CCCNC(=N)N)C(=O)N(C)[C@@H](CCCC)C(=O)N[C@@H](CCCCC)C(=O)N2CCC[C@H]2C(=O)N[C@@H](C(C)(C)C)C(=O)N[C@@H](CC(=O)O)C(=O)N[C@H](C(=O)N[C@@H](CO)C(=O)NCCOCCOCC(=O)NCCCCCCCCCCC(=O)O)CSCC(=O)N[C@@H](Cc2ccccc2)C(=O)N[C@@H](Cc2c[nH]c3ccccc23)C(=O)N[C@@H](CC(=O)O)C1=O` [Example 2337] ({CH2CO}-FWD[NHexGly]Y[Nle]NR[NMeNle][Ahp(2)]P[Tle]DCS[AEEA][Aun]-OH; thioether N-14): where the note is “cell-based binding high-content assay, read-out: HC CBA mVISTA IC50”, the IC50 stood at 21.7 nM.

On to `CCCCCCN1CC(=O)N[C@@H](Cc2ccc(O)cc2)C(=O)N[C@@H](CCCCC)C(=O)NCC(=O)N[C@@H](CCCNC(=N)N)C(=O)N[C@@H](CC(C)C)C(=O)N[C@@H](CCCCC)C(=O)N2CCC[C@H]2C(=O)N[C@@H](C(C)C)C(=O)N2CCC[C@H]2C(=O)N[C@H](C(=O)NCC(N)=O)CSCC(=O)N[C@@H](Cc2ccccc2)C(=O)N[C@@H](Cc2ccc(O)cc2)C(=O)N[C@@H](CC(=O)O)C1=O` [Example 1100] ({CH2CO}-FYD[NHexGly]Y[Ahp(2)]GRL[Ahp(2)]PVPCG-NH2; thioether N-14), for which the IC50 under setting [1] came out at 17.6 nM.

Consider `CCCCCCN1CC(=O)N[C@@H](Cc2ccc(O)cc2)C(=O)N[C@@H](CC(C)C)C(=O)N[C@@H](CC(N)=O)C(=O)N[C@@H](CCCNC(=N)N)C(=O)N(C)[C@@H](CCCC)C(=O)N[C@@H](CCCCC)C(=O)N2CCC[C@H]2C(=O)N[C@@H](C(C)(C)C)C(=O)N[C@@H](CC(=O)O)C(=O)N[C@H](C(=O)N[C@@H](CCCN)C(=O)NCCOCCOCC(=O)N[C@@H](CC(=O)O)C(=O)NCCOCCOCC(=O)NCCCCCCCCCCC(=O)O)CSCC(=O)N[C@@H](Cc2ccccc2)C(=O)N[C@@H](Cc2ccc(O)cc2)C(=O)N[C@@H](CC(=O)O)C1=O` [compound 2082] ({CH2CO}-FYD[NHexGly]YLNR[NMeNle][Ahp(2)]P[Tle]DC[Orn][AEEA]D[AEEA][Aun]-OH; thioether N-14), for which, under setting [2], the IC50 came to 27.6 nM.

The record behind these values is US20240218022A1, “ANTI-VISTA MACROCYCLIC PEPTIDES AND COMPOSITIONS” (BRISTOL-MYERS SQUIBB COMPANY, priority 2022, published 2024).
